Measurements reported in US9139577B2, “Sulfoximine substituted quinazolines for pharmaceutical compositions” (Boehringer Ingelheim International GmbH, priority 2013, dated 2015).

Biological target: MNK2a (Homo sapiens (Human), UniProt Q9HBH9)
Assay: MNK2a in vitro kinase assay (Assay 2), ADP-Glo
Format: biochemical
Conditions: read-out: MNK2 IC50
Protocol: B. MNK2a In vitro Kinase Assay (Assay 2)
ASSAY SETUP: The inhibition of kinase activity of MNK2a was assessed using pre-activated GST-MNK2a. The white, 384-well OptiPlate F plates were purchased from PerkinElmer. The ADP-Glo Kinase Assay (including ultra pure ATP) was purchased from Promega (V9103). Activated MNK2a was obtained as described in WO2011/104340. […] ID No. 5 of WO 2011/104340 by the C-terminal —CONH2 group, was purchased from Thermo Fisher Scientific. All other materials were of highest grade commercially available. Compounds are tested in either serial dilutions or single dose concentrations. The compound stock solutions are 10 mM in 100% DMSO The serial compound dilutions are prepared in 100% DMSO followed by 1:27.3 intermediate dilution in assay buffer. The final DMSO concentration in assay will be <3%. In the 384-well plates 3 μl of test compound from the intermediate dilution is mixed with 4 μl of the activated MNK2 enzyme (final concentration of 10 nM) and 4 μl of the peptide (final concentration of 25 μM)/ultra pure ATP (final concentration of 20 μM), all dissolved in assay buffer. This step is followed by an incubation time of 90 min, then 10 μl of ADP Glo reagent are added, followed by 40 min of incubation. Then 20 μl of kinase detection reagent are admixed. The plates are sealed and after an incubation period of 30 min, the luminescence signal is measured in an Envision reader to determine the amount of produced ADP. All incubation steps are performed at room temperature. The assay buffer consists of 20 mM HEPES, 2 mM DTT, 0.01% BSA, 20 mM MgCl2 and 0.1% Pluronic F-127.
The luminescent signal generated is proportional to the ADP concentration produced and is correlated with activated MNK2 activity. The analysis of the data is performed by the calculation of the percentage of ATP consumption of activated MNK2 in the presence of the test compound compared to the consumption of ATP in the presence of activated MNK2 without compound. (RLU(sample)−RLU(low control))*100/(RLU(high value)−RLU(low control)) [RLU=relative luminescence units]
[…] values based on dose response curves are calculated with the AssayExplorer software.

MNK2a, sequence (Q9HBH9 whole entry): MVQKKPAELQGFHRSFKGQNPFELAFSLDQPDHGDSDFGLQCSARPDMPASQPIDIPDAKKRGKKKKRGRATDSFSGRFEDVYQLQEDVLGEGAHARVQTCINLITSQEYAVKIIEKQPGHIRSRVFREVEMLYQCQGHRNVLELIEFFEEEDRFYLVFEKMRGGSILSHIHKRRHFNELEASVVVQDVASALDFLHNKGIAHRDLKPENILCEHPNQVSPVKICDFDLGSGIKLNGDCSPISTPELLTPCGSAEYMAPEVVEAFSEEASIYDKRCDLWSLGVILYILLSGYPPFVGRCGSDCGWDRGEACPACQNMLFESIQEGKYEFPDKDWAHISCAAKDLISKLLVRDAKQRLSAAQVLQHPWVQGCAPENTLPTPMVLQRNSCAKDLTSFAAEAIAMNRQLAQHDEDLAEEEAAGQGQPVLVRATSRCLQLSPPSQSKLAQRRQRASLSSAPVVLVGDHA

| IC50 [nM] | Compound |
| --- | --- |
| 2 | C[C@@H](Oc1cc(F)ccc1Nc1ncnc2cc(N=S3(=O)CCC3)cc(F)c12)C(=O)NCC(F)(F)C(F)(F)F [Example 4.129] |
| 1 | Cc1cc(N=S2(=O)CCC2)cc2ncnc(Nc3ccc(F)cc3O[C@H](C)C(=O)NC(C(F)(F)F)C(F)(F)F)c12 [Example 2.041] |
| 3 | Cc1cc(N=S(C)(C)=O)cc2ncnc(Nc3ccc(F)cc3O[C@H](C)C(=O)NC(CF)CF)c12 [Example 4.101] |
| 46 | Cc1cc(N=S(C)(C)=O)cc2ncnc(Nc3ccc(F)cc3O[C@H](CO)C(N)=O)c12 [Example 7.012] |
| 1 | Cc1cc(N=S2(=O)CCC2)cc2ncnc(Nc3ccc(Cl)nc3O[C@H](C)C(=O)NCC(F)(F)F)c12 [Example 4.124] |
| 2 | C[C@@H](Oc1cc(F)ccc1Nc1ncnc2cc(N=S3(=O)CCC3)cc(C(F)F)c12)C(=O)NCC(F)(F)F [Example 4.110] |
| 1 | Cc1cc(N=S2(=O)CCC2)cc2ncnc(Nc3ccc(F)cc3O[C@H](C)C(=O)NC(CF)CF)c12 [Example 4.131] |
| 11 | Cc1cc(N=S(C)(C)=O)cc2ncnc(Nc3ccc(F)cc3O[C@H](C)C(=O)N3CC[S+]([O-])CC3)c12 [Example 4.030] |
| 2 | Cc1cc(N=S(C)(C)=O)cc2ncnc(Nc3ccc(F)cc3OC(C)C(F)(F)F)c12 (racemic) [Example 1.013] |
| 3 | Cc1cc(N=S2(=O)CC[C@@H](N)C2)cc2ncnc(Nc3ccc(F)cc3O[C@H](C)C(=O)NCC(F)(F)F)c12 (stereo partly shown) [Example 2.020] |
| 2 | C[C@@H](Oc1cc(F)ccc1Nc1ncnc2cc(N=S(C)(C)=O)cc(Cl)c12)C(=O)NCCF [Example 4.078] |
| 3 | Cc1cc(N=S(C)(C)=O)cc2ncnc(Nc3ccc(F)cc3O[C@H](CO)C(=O)NCC(F)(F)F)c12 [Example 7.011] |
| 2 | Cc1cc(N=S2(=O)CCC2)cc2ncnc(Nc3ccc(F)cc3O[C@H](C)C(=O)NC(C)C(F)F)c12 (stereo partly shown) [Example 4.109] |
| 5 | Cc1cc(N=S(C)(=O)C2CC2)cc2ncnc(Nc3ccc(F)cc3O[C@H](C)C(=O)NCC(F)(F)F)c12 (stereo partly shown) [Example 2.042] |
| 4 | Cc1cc(N=S(C)(=O)C2CCOCC2)cc2ncnc(Nc3ccc(F)cc3O[C@H](C)C(=O)NCC(F)(F)F)c12 (stereo partly shown) [Example 2.029] |
| 2 | Cc1cc(N=S2(=O)CCC2)cc2ncnc(Nc3ccc(Cl)cc3O[C@H](C)C(=O)N[C@H](C)C(F)(F)F)c12 [Example 4.145] |
| 2 | C[C@@H](Oc1cc(F)ccc1Nc1ncnc2cc(N=S(C)(C)=O)cc(Cl)c12)C(=O)NCC(F)F [Example 4.080] |
| 1 | Cc1cc(N=S(C)(C)=O)cc2ncnc(Nc3ccc(F)cc3O[C@H](C)C(=O)NCC#N)c12 [Example 4.039] |
| 3 | CC(NC(=O)[C@@H](C)Oc1cc(F)ccc1Nc1ncnc2cc(N=S(C)(C)=O)cc(Cl)c12)C(F)F (stereo partly shown) [Example 4.134] |
| 1 | Cc1cc(N=S2(=O)CC3(COC3)C2)cc2ncnc(Nc3ccc(Cl)cc3O[C@H](C)C(=O)N[C@@H](C)C(F)(F)F)c12 [Example 2.045] |
| 1 | C[C@@H](Oc1cc(F)ccc1Nc1ncnc2cc(N=S(C)(C)=O)cc(Cl)c12)C(=O)NCC(F)(F)F [Example 4.091] |
| 3 | Cc1cc(N=S(C)(C)=O)cc2ncnc(Nc3ccc(F)cc3O[C@H](C)C(=O)N(CC(F)(F)F)CC(F)(F)F)c12 [Example 3.055] |
| 2 | Cc1cc(N=S(C)(C)=O)cc2ncnc(Nc3ccc(F)cc3O[C@H](C)C(=O)N(CC(F)F)CC(F)F)c12 [Example 3.053] |
| 2 | Cc1cc(N=S2(=O)CCC2)cc2ncnc(Nc3ccc(F)cc3O[C@H](C)C(=O)NCCC(F)F)c12 [Example 4.116] |
| 1 | Cc1cc(N=S2(=O)CCC2)cc2ncnc(Nc3ccc(F)cc3O[C@H](C)C(=O)NC(C)C#N)c12 (stereo partly shown) [Example 4.132] |
| 2 | Cc1cc(N=S(C)(C)=O)cc2ncnc(Nc3ccc(Cl)cc3O[C@H](C)C(=O)NCC(F)(F)F)c12 [Example 4.092] |
| 1 | Cc1cc(N=S2(=O)CCC2)cc2ncnc(Nc3ccc(F)cc3O[C@H](C)C(=O)NCC(F)F)c12 [Example 4.141] |
| 1 | C[C@@H](Oc1cc(F)ccc1Nc1ncnc2cc(N=S3(=O)CCC3)cc(Cl)c12)C(=O)N[C@H](C)C(F)(F)F [Example 4.090] |

The next lines start with the compound.

| Compound | IC50 [nM] |
| --- | --- |
| Cc1cc(N=S2(=O)CCC2)cc2ncnc(Nc3ccc(Cl)cc3O[C@H](C)C(=O)N[C@@H](C)C#N)c12 [Example 4.147] | 3 |
| C[C@@H](C#N)NC(=O)[C@@H](C)Oc1cc(F)ccc1Nc1ncnc2cc(N=S3(=O)CCC3)cc(F)c12 [Example 4.106] | 2 |
| CC(C)Oc1ncccc1Nc1ncnc2cc(N=S(C)(C)=O)cc(F)c12 [Example 2.015] | 190 |
| CCN(CC)C(=O)[C@@H](C)Oc1cc(F)ccc1Nc1ncnc2cc(N=S3(=O)CCCC3)cc(C)c12 [Example 4.025] | 3 |
| CC(NC(=O)[C@@H](C)Oc1cc(F)ccc1Nc1ncnc2cc(N=S3(=O)CCC3)cc(Cl)c12)C(F)F (stereo partly shown) [Example 4.126] | 2 |
| CC(C)NC(=O)[C@@H](C)Oc1cc(F)ccc1Nc1ncnc2cc(N=S3(=O)CCC3)cc(F)c12 [Example 4.114] | 5 |
| C[C@@H](Oc1cc(F)ccc1Nc1ncnc2cc(N=S3(=O)CCC3)cc(F)c12)C(=O)NCC(F)F [Example 4.123] | 3 |
| C[C@H](NC(=O)[C@@H](C)Oc1cc(F)ccc1Nc1ncnc2cc(N=S3(=O)CCC3)cc(C(F)F)c12)C(F)(F)F [Example 4.143] | 2 |
| Cc1cc(N=S(C)(C)=O)cc2ncnc(Nc3ccc(F)cc3OCC3CNC(=O)C3)c12 (stereo not shown) [Example 3.037] | 3 |
| Cc1cc(N=S2(=O)CCCC2)cc2ncnc(Nc3ccc(F)cc3O[C@H](C)C(=O)N3CCC3)c12 [Example 4.070] | 7 |
| Cc1cc(N=S2(=O)CCC2)cc2ncnc(Nc3ccc(F)cc3O[C@H](C)C(=O)NCCC(F)(F)F)c12 [Example 4.089] | 1 |
| Cc1cc(N=S2(=O)CCCC2)cc2ncnc(Nc3ccc(F)cc3O[C@H](C)C(=O)N(C)C3CCCC3)c12 [Example 4.026] | 3 |
| Cc1cc(N=S2(=O)CCC2)cc2ncnc(Nc3ccc(Cl)nc3O[C@H](C)C(=O)N[C@@H](C)C#N)c12 [Example 4.140] | 1 |
| C[C@@H](Oc1cc(F)ccc1Nc1ncnc2cc(N=S3(=O)CCC3)cc(F)c12)C(=O)NC(CF)CF [Example 4.128] | 2 |
| COc1cc(N=S2(=O)CCC2)cc2ncnc(Nc3ccc(F)cc3O[C@H](C)C(=O)NCC#N)c12 [Example 4.115] | 2 |
| Cc1cc(N=S2(=O)CCC2)cc2ncnc(Nc3cccnc3O[C@H](C)C(=O)NCC(F)(F)F)c12 [Example 2.039] | 3 |
| Cc1cc(N=S2(=O)CCC2)cc2ncnc(Nc3ccc(Cl)cc3O[C@H](C)C(=O)NC(C)C(F)F)c12 (stereo partly shown) [Example 4.125] | 1 |
| C[C@@H](C#N)NC(=O)[C@@H](C)Oc1cc(F)ccc1Nc1ncnc2cc(N=S3(=O)CCC3)cc(C(F)F)c12 [Example 4.102] | 2 |
| CC(Oc1ncccc1Nc1ncnc2cc(N=S(C)(C)=O)cc(F)c12)C(F)(F)F (stereo not shown) [Example 1.007] | 8 |
| Cc1noc(C(C)Oc2cc(F)ccc2Nc2ncnc3cc(N=S(C)(C)=O)cc(C)c23)n1 (stereo not shown) [Example 3.036] | 9 |
| C[C@@H](C#N)NC(=O)[C@@H](C)Oc1cc(Cl)ccc1Nc1ncnc2cc(N=S3(=O)CCC3)cc(F)c12 [Example 4.077] | 2 |
